Results taken from patent publication US20230120597A1, “CO-AGONISTS AT GLP-1 AND GIP RECEPTORS SUITABLE FOR ORAL DELIVERY” (Novo Nordisk A/S, priority 2020, published 2023).
Marks after values point to notes of the source that are not given here. Starred links: 1 amine or outer side, 2 acyl side, 3 side chain; linkers in the order of their positions; H or OH if unused. Non-standard residues stand in square brackets, D forms with d. Residues, ends and D or L forms follow the SMILES beside them. Groups on a side chain read outwards from the residue. *: point of attachment. C18 diacid = O=C(O)CCCCCCCCCCCCCCCCC(=O)*; γGlu = O=C(O)[C@H](CCC(=O)[*:2])N[*:1]; εLys = N[C@@H](CCCCN[*:1])C(=O)[*:2]; AEEA = NCCOCCOCC(=O)O; Aib = CC(C)(N)C(=O)O

Experiment: Pharmacokinetic study in dogs, oral dosing of tablet compositions with SNAC
Assay type: in vivo, Beagle dogs
Experimental: The purpose of this example is to determine the half-life and plasma exposure in vivo of the compounds of the present invention after p.o. administration to beagle dogs, i.e. the terminal half-life and concentration of test substance that reaches circulation with time. This is done in a pharmacokinetic (PK) study, where these parameters of the compound in question are determined. By terminal half-life is generally meant the period of time it takes to halve a certain plasma concentration, measured after the initial distribution phase.
The amount of SNAC in the tablet composition was 100-300 mg, the amount of magnesium stearate in the tablet composition was 7.7 mg, and the target amount of each test substance in the tablet composition was 3-4 mg.
Male beagle dogs, 1-7 years of age and weighing 9-17 kg during the study period, were included in the study. The dogs were dosed in a fasting state. The dogs were group housed in pens (12 hours light: 12 hours dark), and fed individually and restrictedly once daily with Royal Canin Medium Adult dog food (Royal Canin Products, China Branch, or Brogaarden A/S, Denmark). The dogs were used for repeated PK studies with a suitable wash-out period between successive dosing. An appropriate acclimatization period was given prior to initiation of the first PK study. All handling, dosing, and blood sampling of the animals were performed by trained and skilled staff. Before the studies, the dogs were fasted overnight and from 0 to 4 hours after dosing. The dogs were restricted to water 1 hour before dosing until 4 hours after dosing, but otherwise had ad libitum access to water during the whole period.
The compositions were administered by a single oral dosing to the dogs in groups of 6-8 dogs. […] The mouth was then closed, and 10 mL of tap water was given by syringe or gavage to facilitate swallowing of the tablet.
One blood sample was drawn before dosing, and additional samples were drawn at predefined time points after dosing for up to 240 hours, such as up to 10 hours, to adequately cover the full plasma concentration-time absorption profile of the test substance. For each blood sample time point, approximately 0.8 mL of whole blood was collected in a 1.5 mL EDTA-coated tube, which was gently turned to mix the sample with EDTA. Blood samples were collected in EDTA buffer (8 mM) and then centrifuged at 4° C. 2000 g for 10 minutes. Plasma was pipetted into Micronic tubes on dry ice, and kept at −20° C. or lower until analysis. Blood samples were taken as appropriate, for example from a venflon in the cephalic vein in the front leg for the first 2 hours and then with syringe from the jugular vein for the rest of the time points. The first few drops were allowed to drain from the venflon to avoid heparin saline from the venflon in the sample.
All blood samples were collected into test tubes containing EDTA for stabilisation and kept on ice until centrifugation. Plasma was separated from whole blood by centrifugation and the plasma was stored at −20° C. or lower until analysis.
The plasma was analysed for test substance using LC-MS (Liquid Chromatography-Mass Spectrometry) as known to the person skilled in the art. […] RP-HPLC separation was achieved using a linear gradient of 1:1 acetonitrile/methanol in 1% aqueous formic acid using either: a Phenomenex Onyx Monolithic C18 column (50×2.0 mm) and a flow rate of 0.8 mL/min at 30° C.; or an Agilent Poroshell 120 SB-C18 column (50×2.1 mm, 2.7 μm) at a flow rate of 0.4 mL/min at 60° C. The mass spectrometer was operated in either positive ionization SIM mode or positive ionization PRM mode.
For each individual animal, a plasma concentration-time profile was analysed by a non-compartmental model in Pharsight Phoenix WinNonLin ver.

SMILES: CC[C@H](C)[C@H](NC(=O)[C@H](Cc1ccccc1)NC(=O)[C@H](CCC(=O)O)NC(=O)[C@H](CCCNC(=N)N)NC(=O)[C@H](C)NC(=O)[C@H](C)NC(=O)[C@H](CCC(N)=O)NC(=O)[C@H](CCCCNC(=O)[C@@H](N)CCCCNC(=O)[C@@H](N)CCCCNC(=O)CC[C@H](NC(=O)CCCCCCCCCCCCCCCCC(=O)O)C(=O)O)NC(=O)[C@H](CCC(=O)O)NC(=O)[C@H](CC(C)C)NC(=O)[C@H](CC(C)C)NC(=O)[C@@H](NC(=O)[C@H](CO)NC(=O)[C@H](Cc1ccc(O)cc1)NC(=O)[C@H](CC(=O)O)NC(=O)[C@H](CO)NC(=O)[C@@H](NC(=O)[C@H](Cc1ccccc1)NC(=O)[C@@H](NC(=O)CNC(=O)[C@H](CCC(=O)O)NC(=O)C(C)(C)NC(=O)[C@@H](N)Cc1ccc(O)cc1)[C@@H](C)O)[C@@H](C)O)[C@@H](C)CC)C(=O)N[C@@H](CCC(=O)O)C(=O)N[C@@H](Cc1c[nH]c2ccccc12)C(=O)N[C@@H](CC(C)C)C(=O)N[C@@H](CC(C)C)C(=O)N[C@@H](CCCNC(=N)N)C(=O)NCC(=O)NCC(=O)N1CCC[C@H]1C(=O)N[C@@H](CCC(=O)O)C(=O)N[C@@H](CO)C(=O)NCC(=O)N[C@@H](C)C(=O)N1CCC[C@H]1C(=O)N1CCC[C@H]1C(=O)N1CCC[C@H]1C(=O)N[C@@H](CO)C(=O)O [Compound No. 28] (H-Y[Aib]EGTFTSDYSILLEK([εLys-εLys-γGlu-C18 diacid])QAAREFIEWLLRGGPESGAPPPS-OH)
- AUC/Dose (oral tablet, SNAC 300 mg, test substance 3 mg, Beagle dogs, arithmetic mean): 18.6** kg*h/L

SMILES: CC[C@H](C)[C@H](NC(=O)[C@H](Cc1ccccc1)NC(=O)[C@H](CCC(=O)O)NC(=O)[C@H](CCC(N)=O)NC(=O)[C@H](C)NC(=O)[C@H](C)NC(=O)[C@H](CCC(N)=O)NC(=O)[C@H](CCCCNC(=O)[C@@H](N)CCCCNC(=O)[C@@H](N)CCCCNC(=O)CC[C@H](NC(=O)CCCCCCCCCCCCCCCCC(=O)O)C(=O)O)NC(=O)[C@H](CCC(=O)O)NC(=O)[C@H](CC(C)C)NC(=O)[C@H](CC(C)C)NC(=O)[C@@H](NC(=O)[C@H](CO)NC(=O)[C@H](Cc1ccc(O)cc1)NC(=O)[C@H](CC(=O)O)NC(=O)[C@H](CO)NC(=O)[C@@H](NC(=O)[C@H](Cc1ccccc1)NC(=O)[C@@H](NC(=O)CNC(=O)[C@H](CCC(=O)O)NC(=O)C(C)(C)NC(=O)[C@@H](N)Cc1ccc(O)cc1)[C@@H](C)O)[C@@H](C)O)[C@@H](C)CC)C(=O)N[C@@H](CCC(=O)O)C(=O)N[C@@H](Cc1c[nH]c2ccccc12)C(=O)N[C@@H](CC(C)C)C(=O)N[C@@H](CC(C)C)C(=O)N[C@@H](C)C(=O)NCC(=O)NCC(=O)N1CCC[C@H]1C(=O)N[C@@H](CO)C(=O)N[C@@H](CO)C(=O)NCC(=O)N[C@@H](C)C(=O)N1CCC[C@H]1C(=O)N1CCC[C@H]1C(=O)N1CCC[C@H]1C(=O)N[C@@H](CO)C(=O)O [Compound No. 29] (H-Y[Aib]EGTFTSDYSILLEK([εLys-εLys-γGlu-C18 diacid])QAAQEFIEWLLAGGPSSGAPPPS-OH)
- AUC/Dose (dog, in vivo, po): 16.6** kg*h/L

SMILES: CC[C@H](C)[C@H](NC(=O)[C@H](Cc1ccccc1)NC(=O)[C@H](CCC(=O)O)NC(=O)[C@H](Cc1c[nH]cn1)NC(=O)[C@H](C)NC(=O)[C@H](C)NC(=O)[C@H](CCC(N)=O)NC(=O)[C@H](CCCCNC(=O)[C@@H](N)CCCCNC(=O)[C@@H](N)CCCCNC(=O)CC[C@H](NC(=O)CCCCCCCCCCCCCCCCC(=O)O)C(=O)O)NC(=O)[C@H](CCC(=O)O)NC(=O)[C@H](CC(C)C)NC(=O)[C@H](CC(C)C)NC(=O)[C@@H](NC(=O)[C@H](CO)NC(=O)[C@H](Cc1ccc(O)cc1)NC(=O)[C@H](CC(=O)O)NC(=O)[C@H](CO)NC(=O)[C@@H](NC(=O)[C@H](Cc1ccccc1)NC(=O)[C@@H](NC(=O)CNC(=O)[C@H](CCC(=O)O)NC(=O)C(C)(C)NC(=O)[C@@H](N)Cc1ccc(O)cc1)[C@@H](C)O)[C@@H](C)O)[C@@H](C)CC)C(=O)N[C@@H](CCC(=O)O)C(=O)N[C@@H](Cc1c[nH]c2ccccc12)C(=O)N[C@@H](CC(C)C)C(=O)N[C@@H](CC(C)C)C(=O)N[C@@H](C)C(=O)NCC(=O)NCC(=O)N1CCC[C@H]1C(=O)N[C@@H](CO)C(=O)N[C@@H](CO)C(=O)NCC(=O)N[C@@H](C)C(=O)N1CCC[C@H]1C(=O)N1CCC[C@H]1C(=O)N1CCC[C@H]1C(=O)N[C@@H](CO)C(=O)O [Compound No. 30] (H-Y[Aib]EGTFTSDYSILLEK([εLys-εLys-γGlu-C18 diacid])QAAHEFIEWLLAGGPSSGAPPPS-OH; N-terminus assumed)
- AUC/Dose (dog, in vivo, po): 6.5 kg·h/L

SMILES: CC[C@H](C)[C@H](NC(=O)[C@H](Cc1ccccc1)NC(=O)[C@H](CCC(=O)O)NC(=O)[C@H](CCCNC(=N)N)NC(=O)[C@H](C)NC(=O)[C@H](C)NC(=O)[C@H](CCC(N)=O)NC(=O)[C@H](CCCCNC(=O)[C@@H](N)CCCCNC(=O)[C@@H](N)CCCCNC(=O)CC[C@H](NC(=O)CCCCCCCCCCCCCCCCC(=O)O)C(=O)O)NC(=O)[C@H](CCC(=O)O)NC(=O)[C@H](CC(C)C)NC(=O)[C@H](CC(C)C)NC(=O)[C@@H](NC(=O)[C@H](CO)NC(=O)[C@H](Cc1ccc(O)cc1)NC(=O)[C@H](CC(=O)O)NC(=O)[C@H](CO)NC(=O)[C@@H](NC(=O)[C@H](Cc1ccccc1)NC(=O)[C@@H](NC(=O)CNC(=O)[C@H](CCC(=O)O)NC(=O)C(C)(C)NC(=O)[C@@H](N)Cc1ccc(O)cc1)[C@@H](C)O)[C@@H](C)O)[C@@H](C)CC)C(=O)N[C@@H](CCC(=O)O)C(=O)N[C@@H](Cc1c[nH]c2ccccc12)C(=O)N[C@@H](CC(C)C)C(=O)N[C@@H](CC(C)C)C(=O)N[C@@H](C)C(=O)NCC(=O)NCC(=O)N1CCC[C@H]1C(=O)N[C@@H](CO)C(=O)N[C@@H](CO)C(=O)NCC(=O)N[C@@H](C)C(=O)N1CCC[C@H]1C(=O)N1CCC[C@H]1C(=O)N1CCC[C@H]1C(=O)N[C@@H](CO)C(=O)O [Compound No. 31] (H-Y[Aib]EGTFTSDYSILLEK([εLys-εLys-γGlu-C18 diacid])QAAREFIEWLLAGGPSSGAPPPS-OH; N-terminus assumed)
- AUC/Dose (dog, in vivo, po): 17.9** kg*h/L

SMILES: CC[C@H](C)[C@H](NC(=O)[C@H](Cc1ccccc1)NC(=O)[C@H](CCC(=O)O)NC(=O)[C@H](CCCNC(=N)N)NC(=O)[C@H](C)NC(=O)[C@H](C)NC(=O)[C@H](CCC(N)=O)NC(=O)[C@H](CCCCNC(=O)COCCOCCNC(=O)COCCOCCNC(=O)CC[C@H](NC(=O)CCCCCCCCCCCCCCCCC(=O)O)C(=O)O)NC(=O)[C@H](CCC(=O)O)NC(=O)[C@H](CC(C)C)NC(=O)[C@H](CC(C)C)NC(=O)[C@@H](NC(=O)[C@H](CO)NC(=O)[C@H](Cc1ccc(O)cc1)NC(=O)[C@H](CC(=O)O)NC(=O)[C@H](CO)NC(=O)[C@@H](NC(=O)[C@H](Cc1ccccc1)NC(=O)[C@@H](NC(=O)CNC(=O)[C@H](CCC(=O)O)NC(=O)C(C)(C)NC(=O)[C@@H](N)Cc1ccc(O)cc1)[C@@H](C)O)[C@@H](C)O)[C@@H](C)CC)C(=O)N[C@@H](CCC(=O)O)C(=O)N[C@@H](Cc1c[nH]c2ccccc12)C(=O)N[C@@H](CC(C)C)C(=O)N[C@@H](CC(C)C)C(=O)N[C@@H](C)C(=O)NCC(=O)NCC(=O)N1CCC[C@H]1C(=O)N[C@@H](CO)C(=O)N[C@@H](CO)C(=O)NCC(=O)N[C@@H](C)C(=O)N1CCC[C@H]1C(=O)N1CCC[C@H]1C(=O)N1CCC[C@H]1C(=O)N[C@@H](CO)C(=O)O [Compound No. 32] (H-Y[Aib]EGTFTSDYSILLEK([AEEA-AEEA-γGlu-C18 diacid])QAAREFIEWLLAGGPSSGAPPPS-OH; N-terminus assumed)
- AUC/Dose (dog, in vivo, po): 25.3* kg*h/L
